In patent US20230132973A1, “DIHYDRO-SPIRO[INDOLINE-3:1'-iSOQUINOLIN]-2-ONES AS ANTIMALARIAL AGENTS” (The University of Buea, priority 2020, published 2023):
“Also recorded” adds a separate entry of the source. Read-outs that look alike come from different tables or passages of the source.

Tests used:
[1] = test system: asexual blood stages of P. falciparum; experiment: Life cycle stage specific action by microscopy of Giemsa-stained thin smears; format: cell-based, Plasmodium falciparum; details: 10 μM, 24 h; for stage specific action on asexual blood stages (ring, trophozoite, schizont): treated at early ring, mid-trophozoite or mid-schizont; for vacuolation in treated parasites: Giemsa-stained thin smears
Experimental: The life cycle stage specific action of (±)-moxiquindole was determined by treatment of parasites at different time points followed by microscopic analysis of Giemsa-stained thin blood smears. Stage proportions were calculated for each asexual parasite stage in the drug treated wells relative to the same stage in the negative control wells.
The inhibitory effects of active compounds or reference drugs on parasite development and schizont rupture were determined by quantitative light microscopy as previously described (Lee et al., 2015). Briefly, synchronized cultures (1.5% hematocrit and 3% parasitemia) at different time-points (early rings, mid trophozoites and schizonts) were treated with either test compound or controls at 10 μM final concentration for 24 h under regular culture conditions. Following treatment, Giemsa-stained thin smears were prepared and parasites were counted in 1,000 erythrocytes per treatment. Stage proportions in test wells relative to solvent control wells were calculated and used to assess the in vitro effects of each compound on trophozoites and schizont development as well as merozoite egress and invasion.

[2] = test system: hemoglobin metabolism in P. falciparum ring and trophozoite stage parasites; experiment: Effect on hemoglobin degradation (intraparasitic hemoglobin content); format: cell-based, Plasmodium falciparum; details: 10 μM, 24 h, relative to E64-treated cultures
Experimental: Owing to the fact that the DSIIQs are constructed from the THIQ pharmacophore of naphthylisoquinolines, which appear to target proteases involved in hemoglobin degradation, we assessed the effect of this DSIIQ on hemoglobin metabolism. Briefly, tightly synchronized ring and trophozoite stage parasites were treated with test compounds for 24 h followed by parasite isolation and quantification of the intraparasitic hemoglobin contents.
To investigate drug effects on hemoglobin degradation, early ring and mid-trophozoite stage parasites (1.5% hematocrit, 5% parasitemia) were co-cultured with the test compounds or experimental controls (0.1% DMSO, chloroquine, artemisinin NITD609 and E64) at a final concentration of 10 μM. The cultures were incubated at 37° C. and 5% CO2 for 24 h. Following incubation, inhibitors were removed by centrifugation at 1800 rpm for 5 min. The pellets were washed in an equal volume of 1×PBS and re-suspended in same volume of 0.1% saponin (in 1×PBS) for 3 min. Isolated parasites were pelleted at 2500 rpm for 5 min and washed twice in an equal volume of 1×PBS. The resulting parasite pellets were permeabilized by treatment in 20 μL of 1% Triton X-100 (in 1×PBS) for 5 min. Intraparasitic hemoglobin content was measured at 550 nm using a Nanodrop spectrophotometer, and folds increase in intra-parasite hemoglobin content was calculated relative to the E64-treated controls.

[3] = test system: CQ-sensitive 3D7 strain of P. falciparum; experiment: SYBR green I-based parasite growth inhibition assay, 3D7 strain; format: cell-based, Plasmodium falciparum; details: for EC50: Plasmodium falciparum
[4] = test system: P. chabaudi-infected mice; experiment: Peter's four-day suppressive test (chemosuppressive activity); format: in vivo, Swiss albino mice
Experimental: Following the encouraging in vitro antiplasmodial activities and cytotoxicity profiles reported above, as well as the ADMET properties of the primary and secondary hits identified in this study, studies were carried out to assess the in vivo efficacy of these compounds in laboratory mice. Chemosuppressive potentials were assessed using the Peter's four-day test whereas the ability of each compound to cure an established plasmodial infection was determined using the Rane's test. To assess the in vivo chemosuppressive potential of the compounds, groups of P. chabaudi-infected mice were treated by ip injection for 3 days following infection using fixed doses of 0.03, 0.3, 3, 10, or 30 mg/kg for each compound. The percent suppression of parasite growth in treated groups was calculated relative to the control group and the growth inhibition curves plotted.
Eight-week old male Swiss albino mice weighing approximately 23±3 g were housed in cages and maintained in a well-ventilated room under standard environmental conditions of temperature at 22-24° C., under a 12 h dark-light cycle, with food and water provided ad libitum.
The animals were allowed one week acclimation before commencement of the study. Three (3) mice were infected with stocked blood containing Plasmodium chabaudi parasites and used as donors. In brief, frozen blood containing the sulfadoxine/pyrimethamine resistant P. c. chabaudi (AS(50S/P) parasites was thawed and about 200 μL parasites were injected intra-peritoneally (i.p) into each of the three mice and parasitemia monitored through blood smear until a 20% threshold was reached. These infected animals then served as donors to the experimental animals. Ethical approval for the study was obtained from the University of Douala Institutional Review Board (N^oIEC-UD/1146/09/2017/A).
In vivo efficacies were conducted following a modification of the Peter's four-day suppressive test as previously described (Lee et al., 2014, Tarkang et al., 2014). Briefly, following parasite passage in donor mice, the mice were euthanized using diethyl ether and P. c. chabaudi infected blood was obtained by cardiac puncture and placed into heparinized tubes. The blood was then diluted with phosphate buffered saline (PBS) and immediately used to infect the experimental mice. Mice were randomly divided into seven (7) groups of 3 animals and each mouse was injected with 1×10^7 infected erythrocytes intraperitoneally (Day 0). The mice were kept for 24 hours to establish infection and Giemsa thin blood smears were prepared to quantify parasites (Day 1). Thereafter, groups 1, 2, 3, 4 and 5 were treated with compounds dissolved in 1×PBS, intraperitoneally at dosages of 30, 10, 3, 0.3 and 0.03 mg/kg body weight, respectively, while groups 6 and 7 were treated with vehicle or chloroquine at 10 mg/kg, respectively for three consecutive days (Day 1-Day 3). Twenty-four (24) and ninety-six (96) hours post-infection, thin blood smears were prepared from each animal with blood obtained from the tail vein, fixed in methanol and stained with 10% Giemsa.
Parasitemia was determined by light microscopy using a 100× objective lens and the following equation: […]
Average percentage chemosuppression was calculated as
Where A is mean parasitemia in negative control and B is mean parasitemia in test group

[5] = test system: vacuolar lipid dynamics in P. falciparum; experiment: Effect on vacuolar lipid dynamics (Oil Red O staining); format: cell-based, Plasmodium falciparum; details: trophozoite stage parasites, 24 h
Experimental: Because cellular vacuolation may result from perturbation of intracellular lipid content, we investigated the effect of (±)-moxiquindole on vacuolar lipid dynamics using fluorescent Oil red O as lipid stain.
The effect of the compounds on intracellular lipid dynamics was assessed by measurement of intracellular lipid content using Oil Red O. Briefly, early rings or late trophozoite stage parasites (30 hpi) were treated with the compounds or controls for 24 h under regular culture conditions. Following treatment, inhibitors were removed by centrifugation at 2500 rpm for 5 min and pellets were washed in equal volumes of 1×PBS. The parasites were fixed with 4% paraformaldehyde for 30 min at room temperature and pelleted at 2500. Three volumes of Oil Red O (ORO) stock solution (5 mg/mL in 100% isopropanol) were diluted in two volumes of distilled water and filtered prior to use. About 100 μL of the ORO were added to parasite pellets in the tube and incubated for 30 minutes. Parasites were pelleted and washed twice in distilled water. Thereafter, parasites were deposited on pre-cleaned coverslips and air dried. Dried coverslips were mounted in DAPI antifade reagent onto cleaned slides, air dried and viewed under a 100× oil immersion lens and images acquired using a Leica DM1000 fluorescence microscope suite (LAS version 4.5).

[6] = test system: Malaria parasites (ring-stage parasitized erythrocytes); experiment: Drug-combination (drug-drug interaction) studies, SYBR-Green I; format: cell-based, Plasmodium falciparum; details: in combination with artemisinin
Experimental: In view of the overlapping modes of action between the hybrids and some known antimalarial drugs in terms of targeted cellular processes, we investigated the interaction between these compounds at variable combination ratios. Malaria parasites were continuously cultured and synchronized as earlier described prior to the assay.
Briefly, two-fold drug dilutions were prepared using a variable potency ratio drug combination approach, starting at 5EC50A: 0EC50B to 0EC50A: 5EC50B in serum-free medium, where A and B represent the different partner molecules.
The test was run for 72 h and terminated when the untreated parasites were at the early trophozoite stage of the second cycle. Parasite viability was assessed by the SYBR-Green I fluorescence-based assay as earlier described. Dose-response curves and EC50 values of each combination and drug alone were obtained using GraphPad Prism v.5.0 and Microsoft Excel was used to calculate mean EC50 values and the standard error of the mean.

In the case of COc1cc2c(cc1OC)C1(NC(C)C2)C(=O)Nc2ccc(Cl)cc21 (racemic) [Compound 11, 5-chloro-6′,7′-dimethoxy-3′-methyl-3′,4′-dihydro-2′H-spiro[indoline-3,1′-isoquinolin]-2-one], the “stage specific action on asexual blood stages (ring, trophozoite, schizont)” value (“stage specific action” for short) [1] is reported as “exhibits inhibitory activities against ring-to-trophozoite development, trophozoite-to-schizont development and schizont rupture”, the “vacuolation in treated parasites” value [1] is reported as “induced vacuolation in parasites” and the “intraparasitic hemoglobin content / accumulation” value [2] is reported as “accumulation of intra-parasitic hemoglobin”. The “times more potent than (±)-moxiquindole” value ([3]; Pf 3D7) was 80 times, the “fold more active than the primary hit (±)-moxiquindole” value ([3]; Pf 3D7 EC50 ratio) was 77 fold and the EC50 ([3]; Pf 3D7, 72 h, read-out: EC50) was 24 nM. The suppression of parasitemia ([4]; 0.3 mg/kg ip) was “slight advantage over (±)-moxiquindole”, the suppression of parasitemia ([4]; 3.0 mg/kg ip) was 98% and the ED50 ([4]; Mus musculus, ip, 72 h, read-out: suppressive ED50) was 0.049 mg/kg.
In the case of CC(C)C[C@H](NC(=O)[C@H]1O[C@@H]1C(=O)O)C(=O)NCCCCN=C(N)N (relative stereo) [Compound E64, L-trans-epoxysuccinyl-leucylamido-(4-guanidino)], the “neutral lipid bodies / vacuolar lipid uptake (Oil red O)” value [5] is reported as “no effect on vacuolar lipid uptake”, the “stage specific action” value [1] is reported as “only inhibiting schizont accumulation” and the “intraparasitic hemoglobin content / accumulation” value [2] is reported as “minimal effect on hemoglobin degradation”.
With C[C@@H]1CC[C@H]2[C@@H](C)C(=O)O[C@@H]3O[C@@]4(C)CC[C@@H]1[C@]32OO4 [Artemisinin, artemisinin] the “neutral lipid bodies / vacuolar lipid uptake (Oil red O)” value [5] was “no effect on vacuolar lipid uptake”, the “stage specific action” value [1] was “high proportions of the treated parasite stage at each treatment time-point; also recorded: exhibits inhibitory activities against ring-to-trophozoite development, trophozoite-to-schizont development and schizont rupture” and the EC50 ([3]; Pf 3D7, 72 h, read-out: EC50) was 15.9 nM.
For COc1cc2c(cc1OC)C1(NCC2)C(=O)Nc2ccc([N+](=O)[O-])cc21 (stereo not drawn) [Compound 8e, 6′,7′-dimethoxy-5-nitro-3′,4′-dihydro-2′H-spiro[indoline-3,1′-isoquinolin]-2-one], the melting point was 174 to 175 °C.
With COc1cc2c(cc1OC)C1(NCC2)C(=O)Nc2ccc(N)cc21 (stereo not drawn) [Compound 8f, 5-amino-6′,7′-dimethoxy-3′,4′-dihydro-2′H-spiro[indoline-3,1′-isoquinolin]-2-one] the melting point was 186 to 187 °C.
COc1cc2c(cc1OC)C1(NCC2)C(=O)Nc2cc(F)c(F)cc21 (stereo not drawn) [Compound 8g, 5,6-difluoro-6′,7′-dimethoxy-3′,4′-dihydro-2′H-spiro[indoline-3,1′-isoquinolin]-2-one] gave a melting point of 220 to 221 °C.
In the case of COc1cc2c(cc1OC)C1(NCC2)C(=O)N(Cc2ccc(Br)cc2)c2ccc(Cl)cc21 (stereo not drawn) [Compound 8k], the “parasite growth inhibition in primary assays” value ([3]; primary screening at 10 μM, Pf 3D7, 72 h) is reported as about 52%.
COc1cc2c(cc1OC)C1(NCC2)C(=O)Nc2ccc(F)cc21 (stereo not drawn) [Compound 8o, 5-fluoro-6′,7′-dimethoxy-3′,4′-dihydro-2′H-spiro[indoline-3,1′-isoquinolin]-2-one] showed a melting point of 98 to 99 °C.
With C[C@H]1Cc2c([nH]c3cc(Cl)c(F)cc23)[C@@]2(N1)C(=O)Nc1ccc(Cl)cc12 [NITD609] the “stage specific action” value [1] was “exhibits inhibitory activities against ring-to-trophozoite development, trophozoite-to-schizont development and schizont rupture” and the “vacuolation in treated parasites” value [1] was “induced vacuolation in parasites”.
For CCN(CC)CCCC(C)Nc1ccnc2cc(Cl)ccc12 (stereo not drawn) [chloroquine], the “neutral lipid bodies / vacuolar lipid uptake (Oil red O)” value [5] was “devoid of neutral lipid bodies”, the “stage specific action” value [1] was “rapid accumulation of early rings and trophozoites but not schizonts; also recorded: exhibits inhibitory activities against ring-to-trophozoite development, trophozoite-to-schizont development and schizont rupture” and the EC50 ([3]; 3D7, 72 h) was 13.9 nM. The suppression of parasitemia ([4]; 10 mg/kg, compared with 98% by test compounds at 3.0 mg/kg) was “comparable level of suppression of parasitemia” and the “combination index (CI)” value [6] was 1.183.
